The values that follow come from patent US9708306B2, “Benzimidazole derivatives and preparation process and pharmaceutical uses thereof” (WUHAN LL SCIENCE AND TECHNOLOGY DEVELOPMENT CO., LTD, priority 2015, dated 2017).

Read-outs that look alike come from different tables or passages of the source.

The test system of one test is normal rats. Put plainly: Effect on blood pressure of normal rats by single oral administration. The conditions noted are these: Rattus norvegicus, po, single, normal rats; for inhibition in vivo at 1 mg/kg / inhibition in vivo at 0.5 mg/kg / inhibition in vivo at 2 mg/kg: 8 h, read-out: blood pressure reduction at 8 h after the administration; for inhibition in vivo at 1 mg/kg / change in vivo at 1 mg/kg: 1.0 mg/kg p.o.; for change in vivo at 1 mg/kg / change in vivo at 0.5 mg/kg / change in vivo at 2 mg/kg: read-out: variations on heart rate; for inhibition in vivo at 0.5 mg/kg / change in vivo at 0.5 mg/kg: 0.5 mg/kg p.o.; for inhibition in vivo at 2 mg/kg / change in vivo at 2 mg/kg: 2.0 mg/kg p.o. The class given is in vivo, Wistar rats.

Test [1] relates to renovascular hypertensive rats. Put plainly: Effect on reducing blood pressure of renovascular hypertensive rats by single oral administration. The conditions noted are these: for change in vivo at 1 mg/kg / inhibition in vivo at 1 mg/kg / change in vivo at 0.5 mg/kg / inhibition in vivo at 0.5 mg/kg / change in vivo at 2 mg/kg / inhibition in vivo at 2 mg/kg: Rattus norvegicus, single oral administration; for change in vivo at 1 mg/kg / change in vivo at 0.5 mg/kg / change in vivo at 2 mg/kg: RHR, read-out: Variations on heart rate; for inhibition in vivo at 1 mg/kg / inhibition in vivo at 0.5 mg/kg / inhibition in vivo at 2 mg/kg: two-kidney one-clip RHR, measured 1-10 h, read-out: Maximum blood pressure reduction; for blood pressure reduction effect compared with Azilsartan medoxomil: result in words. The test is classed as in vivo, Wistar rats.

The test system of test [2] is spontaneously hypertensive rats (SHR). Put plainly: Effect on reducing blood pressure of spontaneously hypertensive rats (SHR) by multiple oral administrations. The class given is in vivo. Conditions: Rattus norvegicus, SHR; for inhibition in vivo at 0.5 mg/kg: 0.5 mg/kg oral once per day; for inhibition in vivo at 2 mg/kg: 2.0 mg/kg oral once per day.
Where [3] appears, read: 1.0 mg/kg oral once per day, 1 hour after the administration, read-out: Maximum blood pressure reduction, 1st-day administration.
Setting [4] is: 1.0 mg/kg oral once per day, 1 hour after the administration, read-out: Maximum blood pressure reduction, 7th-day administration.
The mark [5] stands for this setting: 1.0 mg/kg oral once per day, 1 hour after the administration, read-out: Maximum blood pressure reduction, 14th-day administration.
Setting [6] is: 1 hour after the administration, read-out: Maximum blood pressure reduction, 1st-day administration.
[7] abbreviates: 1 hour after the administration, read-out: Maximum blood pressure reduction, 7th-day administration.
The mark [8] stands for this setting: 1 hour after the administration, read-out: Maximum blood pressure reduction, 14th-day administration.

On to `CCOc1nc2cccc(C(=O)OCc3oc(=O)oc3C)c2n1Cc1ccc(-c2ccccc2-c2noc(=O)[nH]2)cc1` [Azilsartan medoxomil, reference compound], for which the inhibition in vivo at 1 mg/kg was 6.4 ± 2.1% with normal rats; 30 ± 3.8% in test [1]; 32 ± 3.5% in test [2] (setting [3]); 34 ± 2.8% in test [2] (setting [4]); 36 ± 3.6% in test [2] (setting [5]); 8 ± 3% in test [2] (1.0 mg/kg oral, read-out: Heart Rate (effect on reducing heart rate)). In addition, the change in vivo at 1 mg/kg is -5 ± 2% in the test on normal rats and -7 ± 3% in test [1]. The “blood pressure reduction at 24 hours after the administration” value in test [1] (renal artery-ligated rat, 24 hours after the administration, dose not stated) is 20%.
Regarding `CCOc1nc2cccc(C(=O)OC(C)OC(=O)OC(C)C)c2n1Cc1ccc(-c2ccccc2-c2noc(=O)[nH]2)cc1` (stereo not drawn) [QR01003], the inhibition in vivo at 0.5 mg/kg with normal rats is 5.6 ± 3.1%; in test [1] it was 15 ± 1.8%; in test [2] (setting [6]), 18 ± 4.6%; in test [2] (setting [7]), 21 ± 6.3%; in test [2] (setting [8]), 17 ± 6.8%. The inhibition in vivo at 1 mg/kg came to 5.4 ± 1.9% with normal rats; 28 ± 2.9% in test [1]; 31 ± 6.8% in test [2] (setting [3]); 35 ± 7.3% in test [2] (setting [4]); 36 ± 8.1% in test [2] (setting [5]). Further, the inhibition in vivo at 2 mg/kg in the test on normal rats amounted to 6.4 ± 3.4%; in test [1], 36 ± 4.3%; in test [2] (setting [6]) it was 39 ± 5%; in test [2] (setting [7]), 41 ± 5.7%; in test [2] (setting [8]), 44 ± 6.1%. In addition, the change in vivo at 0.5 mg/kg with normal rats was -2 ± 2%; in test [1], 2%. The change in vivo at 1 mg/kg in the test on normal rats was 4%; in test [1], -3 ± 2%. The change in vivo at 2 mg/kg was -3 ± 4% with normal rats and -5 ± 2% in test [1]. Besides, the “blood pressure reduction effect compared with Azilsartan medoxomil” value (“blood pressure reduction effect” below) in test [1] (renal artery-ligated rat) is “close to that of Azilsartan medoxomil”.
In the case of `CCOc1nc2cccc(C(=O)OCc3no[n+]([O-])c3C(C)(C)C)c2n1Cc1ccc(-c2ccccc2-c2noc(=O)[nH]2)cc1` [QR01026], in the test with normal rats, the inhibition in vivo at 0.5 mg/kg was determined as 5.2 ± 3.2%, the inhibition in vivo at 1 mg/kg was found to be 4.3 ± 5.1%, the inhibition in vivo at 2 mg/kg was 3.8 ± 4.5% and the change in vivo at 0.5 mg/kg was -5 ± 8%. In the test with normal rats, the change in vivo at 1 mg/kg was -3 ± 7% and the change in vivo at 2 mg/kg was -4 ± 7%. In addition, in test [1], the change in vivo at 0.5 mg/kg was -8 ± 6%, the inhibition in vivo at 0.5 mg/kg stood at 16 ± 2.8%, the change in vivo at 1 mg/kg was -10 ± 5% and the inhibition in vivo at 1 mg/kg was 24 ± 6.5%. In addition, in test [1], the change in vivo at 2 mg/kg is -10 ± 6% and the inhibition in vivo at 2 mg/kg stood at 31 ± 2.8%.
On to `CCOc1nc2cccc(C(=O)OC(OC(=O)OCc3nc(C)c(C)nc3C)C(C)C)c2n1Cc1ccc(-c2ccccc2-c2noc(=O)[nH]2)cc1` (stereo not drawn) [QR01027], for which, in the test with normal rats, the inhibition in vivo at 0.5 mg/kg turned out to be 5.2 ± 3%, the inhibition in vivo at 1 mg/kg was found to be 4.8 ± 4.2%, the inhibition in vivo at 2 mg/kg is 2.8 ± 3.9% and the change in vivo at 0.5 mg/kg was -3 ± 4%. Besides, in the test on normal rats, the change in vivo at 1 mg/kg came out at 5% and the change in vivo at 2 mg/kg was -3 ± 4%. Also, in test [1], the change in vivo at 0.5 mg/kg is -2 ± 3%, the inhibition in vivo at 0.5 mg/kg was determined as 14 ± 2%, the change in vivo at 1 mg/kg was -5 ± 3% and the inhibition in vivo at 1 mg/kg came to 18 ± 2.9%. Also, in test [1], the change in vivo at 2 mg/kg is -6 ± 4% and the inhibition in vivo at 2 mg/kg worked out at 23 ± 4.6%.
Turning to `CCOc1nc2cccc(C(=O)OC(OC(=O)OCc3nc(C)c(C)nc3C)C(C)(C)C)c2n1Cc1ccc(-c2ccccc2-c2noc(=O)[nH]2)cc1` (stereo not drawn) [QR01028], in the test with normal rats, the inhibition in vivo at 0.5 mg/kg was 1.7 ± 5.3%, the inhibition in vivo at 1 mg/kg came to 3.9 ± 5.2%, the inhibition in vivo at 2 mg/kg was 2.5 ± 4.6% and the change in vivo at 0.5 mg/kg is -4 ± 3%. In the test on normal rats, the change in vivo at 1 mg/kg was -3 ± 4% and the change in vivo at 2 mg/kg is -2 ± 3%. In test [1], the change in vivo at 0.5 mg/kg is -6 ± 2%, the inhibition in vivo at 0.5 mg/kg amounted to 15 ± 0.9%, the change in vivo at 1 mg/kg was -6 ± 4% and the inhibition in vivo at 1 mg/kg was 18 ± 4.2%. Also, in test [1], the change in vivo at 2 mg/kg is -12 ± 5% and the inhibition in vivo at 2 mg/kg came out at 25 ± 3.6%.
On to `CCOc1nc2cccc(C(=O)OCOC(=O)OCc3ccno3)c2n1Cc1ccc(-c2ccccc2-c2noc(=O)[nH]2)cc1` [QR01030], for which, in the test on normal rats, the inhibition in vivo at 0.5 mg/kg was 2.9 ± 3%, the inhibition in vivo at 1 mg/kg worked out at 5.2 ± 4.3%, the inhibition in vivo at 2 mg/kg was found to be 3.7 ± 5.8% and the change in vivo at 0.5 mg/kg was -2 ± 4%. In the test with normal rats, the change in vivo at 1 mg/kg was 4% and the change in vivo at 2 mg/kg was -3 ± 5%. In test [1], the change in vivo at 0.5 mg/kg was -12 ± 6%, the inhibition in vivo at 0.5 mg/kg was found to be 18 ± 2%, the change in vivo at 1 mg/kg is -20 ± 6% and the inhibition in vivo at 1 mg/kg was 25 ± 3.6%. In test [1], the change in vivo at 2 mg/kg is -18 ± 7% and the inhibition in vivo at 2 mg/kg came out at 30 ± 4.6%.
For `CCOc1nc2cccc(C(=O)OCOC(=O)OCc3cn(C)cn3)c2n1Cc1ccc(-c2ccccc2-c2noc(=O)[nH]2)cc1` [QR01031], in the test on normal rats, the inhibition in vivo at 0.5 mg/kg turned out to be 2.9 ± 2.6%, the inhibition in vivo at 1 mg/kg is 4.5 ± 3.8%, the inhibition in vivo at 2 mg/kg is 4.7 ± 3.1% and the change in vivo at 0.5 mg/kg is -5 ± 5%. In the test on normal rats, the change in vivo at 1 mg/kg is -4 ± 3% and the change in vivo at 2 mg/kg is -8 ± 4%. In test [1], the change in vivo at 0.5 mg/kg is -11 ± 5%, the inhibition in vivo at 0.5 mg/kg is 18 ± 3.5%, the change in vivo at 1 mg/kg was -18 ± 6% and the inhibition in vivo at 1 mg/kg is 25 ± 5.7%. For the same compound, in test [1], the change in vivo at 2 mg/kg is -17 ± 5% and the inhibition in vivo at 2 mg/kg was 32 ± 2.6%.
As for `CCOc1nc2cccc(C(=O)OCOC(=O)OCc3ccn(C)c3)c2n1Cc1ccc(-c2ccccc2-c2noc(=O)[nH]2)cc1` [QR01032], in the test with normal rats, the inhibition in vivo at 0.5 mg/kg came to 4.7 ± 3.1%, the inhibition in vivo at 1 mg/kg was found to be 5.2 ± 2.7%, the inhibition in vivo at 2 mg/kg was 4.8 ± 3.6% and the change in vivo at 0.5 mg/kg is -8 ± 6%. Moreover, in the test with normal rats, the change in vivo at 1 mg/kg was -5 ± 2% and the change in vivo at 2 mg/kg is -3 ± 5%. In addition, in test [1], the change in vivo at 0.5 mg/kg is -8 ± 6%, the inhibition in vivo at 0.5 mg/kg turned out to be 20 ± 4.1%, the change in vivo at 1 mg/kg was -9 ± 4% and the inhibition in vivo at 1 mg/kg is 28 ± 3.1%. In test [1], the change in vivo at 2 mg/kg is -9 ± 5% and the inhibition in vivo at 2 mg/kg was determined as 35 ± 4.6%. Moreover, the “blood pressure reduction effect” value in test [1] (renal artery-ligated rat) is reported as “close to that of Azilsartan medoxomil”.
Regarding `CCOc1nc2cccc(C(=O)OC(C)OC(=O)OCc3ccn(C)c3)c2n1Cc1ccc(-c2ccccc2-c2noc(=O)[nH]2)cc1` (stereo not drawn) [QR01033], in the test on normal rats, the inhibition in vivo at 0.5 mg/kg turned out to be 2.3 ± 3.2%, the inhibition in vivo at 1 mg/kg worked out at 6.4 ± 2.9%, the inhibition in vivo at 2 mg/kg was found to be 4.2 ± 5% and the change in vivo at 0.5 mg/kg is -3 ± 4%. For the same compound, in the test with normal rats, the change in vivo at 1 mg/kg is -5 ± 3% and the change in vivo at 2 mg/kg was -1 ± 7%. In test [1], the change in vivo at 0.5 mg/kg is -8 ± 2%, the inhibition in vivo at 0.5 mg/kg is 19 ± 2.1%, the change in vivo at 1 mg/kg is -15 ± 6% and the inhibition in vivo at 1 mg/kg came out at 26 ± 3.7%. For the same compound, in test [1], the change in vivo at 2 mg/kg is -19 ± 7% and the inhibition in vivo at 2 mg/kg came to 32 ± 4%.
`CCOc1nc2cccc(C(=O)OC3CCc4c3no[n+]4[O-])c2n1Cc1ccc(-c2ccccc2-c2noc(=O)[nH]2)cc1` (stereo not drawn) [QR01035]: in the test on normal rats, the inhibition in vivo at 0.5 mg/kg was determined as 6.4 ± 2.1%, the inhibition in vivo at 1 mg/kg amounted to 3.4 ± 2.5%, the inhibition in vivo at 2 mg/kg worked out at 6.1 ± 3.8% and the change in vivo at 0.5 mg/kg is -4 ± 3%. In the test on normal rats, the change in vivo at 1 mg/kg was -3 ± 3% and the change in vivo at 2 mg/kg turned out to be 6%. Also, in test [1], the change in vivo at 0.5 mg/kg was -14 ± 6%, the inhibition in vivo at 0.5 mg/kg was 20 ± 3.1%, the change in vivo at 1 mg/kg was -23 ± 6% and the inhibition in vivo at 1 mg/kg is 28 ± 4.5%. In addition, in test [1], the change in vivo at 2 mg/kg is -26 ± 5% and the inhibition in vivo at 2 mg/kg amounted to 36 ± 4.6%. The “blood pressure reduction effect” value in test [1] (renal artery-ligated rat) was “close to that of Azilsartan medoxomil”.
